Experimental findings from ChEMBL document CHEMBL5390306, “Development of Conformationally Restricted Negamycin Derivatives for Potent Readthrough Activity” (ACS Med Chem Lett, 2023) are described below.

Molecules are shown by their SMILES. The source made the active and inactive calls. The rule behind the calls is not given here.

What all share (type): functional, cell-based
The subject of test [1] is Premature termination codon. Kind of test: Readthrough activity against UGA type PTC 5'-TTGAAAGAGCAATAAAATGGCTTCAAC-3' from DMD mdx mouse overexpressed in COS7 cells assessed as ratio of luciferase activity to beta-galactosidase activity at 200 uM incubated for 48 hrs by Dual luciferase reporter assay. In general terms: In a reporter assay the amount or activity of a reporter protein is the signal.

Test [2] deals with Premature termination codon. In words: Readthrough activity against UAG type PTC 5'-TTGAAAGAGCAATAAAATGGCTTCAAC-3' from DMD mdx mouse overexpressed in COS7 cells assessed as ratio of luciferase activity to beta-galactosidase activity at 200 uM incubated for 48 hrs by Dual luciferase reporter assay.
Test [3] relates to Premature termination codon. Kind of test: Readthrough activity against UAA type PTC 5'-TTGAAAGAGCAATAAAATGGCTTCAAC-3' from DMD mdx mouse overexpressed in COS7 cells assessed as ratio of luciferase activity to beta-galactosidase activity at 200 uM incubated for 48 hrs by Dual luciferase reporter assay.
Test [4] concerns Premature termination codon. In words: Readthrough activity against UGA type PTC 5'-TTGAAAGAGCAATAAAATGGCTTCAAC-3' from DMD mdx mouse overexpressed in COS7 cells assessed as ratio of luciferase activity to beta-galactosidase activity at 6.25 to 200 uM incubated for 48 hrs by Dual luciferase reporter assay. The settings on record: dose 6.25-200 µM.
Test [5] deals with Premature termination codon. In words: Readthrough activity against UGA type PTC 5'-TTGAAAGAGCAATAAAATGGCTTCAAC-3' from DMD mdx mouse overexpressed in COS7 cells assessed as ratio of luciferase activity to beta-galactosidase activity incubated for 48 hrs by Dual luciferase reporter assay. The settings on record: dose 6.25-200 µM.
In test [6] the test system is Premature termination codon. In words: Potency index, ratio of G418 to test compound for readthrough activity against UGA type PTC 5'-TTGAAAGAGCAATAAAATGGCTTCAAC-3' from DMD mdx mouse overexpressed in COS7 cells at 200 uM incubated for 48 hrs by Dual luciferase reporter assay.
Test [7] relates to Premature termination codon. In words: Potency index, ratio of 2,6-diaminopurine to test compound for readthrough activity against UGA type PTC 5'-TTGAAAGAGCAATAAAATGGCTTCAAC-3' from DMD mdx mouse overexpressed in COS7 cells at 200 uM incubated for 48 hrs by Dual luciferase reporter assay.
Test [8] concerns Premature termination codon. In words: Readthrough activity against UGA type PTC 5'-TTGAAAGAGCAATAAAATGGCTTCAAC-3' from DMD mdx mouse overexpressed in COS7 cells assessed as readthrough efficiency at 200 uM incubated for 48 hrs by Dual luciferase reporter assay relative to control.

For the molecule `CN(CC(=O)O)NC(=O)C[C@H](N)C[C@@H](O)CN`, the Ratio in test [1] stood at 1.55; in test [2] it was 0.91; in test [3] it was 1.31.

For the molecule `CN(CC(=O)O)NC(=O)C[C@@H](NC(=O)[C@@H](N)CCCCCCCO)[C@H]1C[C@H]1CN`, the Ratio in test [1] turned out to be 3.25.

As to `O=C(O)c1cccc(-c2noc(-c3ccccc3F)n2)c1`, the outcome in test [4] was Active.

For the molecule `CCCCCCCCC[C@H](N)C(=O)N[C@H](CC(=O)NN(C)CC(=O)O)[C@H]1C[C@H]1CN`, the figures for the Ratio in test [1], in test [2] and in test [3] were 23, 11.4 and 1.81, respectively. The Activity entry in test [5] is “Dose-Dependent Effect”; in test [8] it was 2.88%. Also, the fold change (FC) in test [6] and in test [7] was 2 throughout.

In the case of `CCCCCCCCC[C@H](N)C(=O)N[C@@H](CCCN)CC(=O)NN(C)CC(=O)O`, the Ratio in test [1] amounted to 19.5.

In the case of `CC(C)C[C@H](N)C(=O)N[C@H](CC(=O)NN(C)CC(=O)O)[C@H]1C[C@H]1CN`, the Ratio in test [1] worked out at 3.08.

`CC(C)C[C@@H](N)C(=O)N[C@H](CC(=O)NN(C)CC(=O)O)[C@H]1C[C@H]1CN`: the Ratio in test [1] was 1.01.

For the molecule `CCCCCCC(=O)NC[C@H](N)C(=O)N[C@H](CC(=O)NN(C)CC(=O)O)[C@H]1C[C@H]1CN`, the Ratio in test [1] is 1.38.

Consider `CCCCCC/C=C/C[C@H](N)C(=O)N[C@H](CC(=O)NN(C)CC(=O)O)[C@H]1C[C@H]1CN`, for which the Ratio in test [1] was 16.9.

In the case of `CN(CC(=O)O)NC(=O)C[C@@H](N)CCCN`, the Ratio worked out at 2.69 in test [1], 1.95 in test [2] and 1.22 in test [3].

For `Nc1nc(N)c2nc[nH]c2n1`, the Activity result in test [5] is “Dose-Dependent Effect”.

As for `CCCC(=O)NCCCC[C@H](N)C(=O)N[C@H](CC(=O)NN(C)CC(=O)O)[C@H]1C[C@H]1CN`, the Ratio in test [1] came out at 2.05.

For `CN(CC(=O)O)NC(=O)C[C@@H](N)[C@H]1C[C@H]1CN`, the Ratio in test [1] was found to be 8.36; in test [2], 6.24; in test [3] it was 1.3. The Activity result in test [5] was “Dose-Dependent Effect”.

`COCCCCCCC[C@H](N)C(=O)N[C@H](CC(=O)NN(C)CC(=O)O)[C@H]1C[C@H]1CN`: the Ratio in test [1] came to 1.94.

With `CN[C@@H]1[C@@H](O)[C@@H](O[C@@H]2[C@@H](O)[C@H](O[C@H]3O[C@H]([C@@H](C)O)[C@@H](O)[C@H](O)[C@H]3N)[C@@H](N)C[C@H]2N)OC[C@]1(C)O`, the figures for the Ratio in test [1], in test [2] and in test [3] were 6.01, 4.68 and 4.5, respectively. For the same molecule, the results for the Activity result in test [5] and in test [8] were “Dose-Dependent Effect” and 1.71%, respectively.
